The source made the active and inactive calls. How the calls were made is not given here.
Tested on: CCRIS mutagenicity, Ames/micronucleus/aberration tests
Experiment: CCRIS mutagenicity studies
[1] = Test System: AMES SALMONELLA TYPHIMURIUM, Strain/Indicator: TA98, Metabolic Activation: NONE, Method: STANDARD PLATE
[2] = Test System: AMES SALMONELLA TYPHIMURIUM, Strain/Indicator: TA100, Metabolic Activation: NONE, Method: STANDARD PLATE

Measured: mutagenic call

CCCCN(CCCC)N=O
active: Test System: AMES SALMONELLA TYPHIMURIUM, Strain/Indicator: TA100, Metabolic Activation: MOUSE, INTACT UROTHELIAL CELLS, Method: FLUCTUATION TEST active; positive | Test System: AMES SALMONELLA TYPHIMURIUM, Strain/Indicator: TA100, Metabolic Activation: RAT, INTACT UROTHELIAL CELLS, Method: FLUCTUATION TEST active; positive | Test System: AMES SALMONELLA TYPHIMURIUM, Strain/Indicator: TA100, Metabolic Activation: RAT, LIVER, S-9, AROCLOR 1254, Method: PREINCUBATION active; positive | Test System: AMES SALMONELLA TYPHIMURIUM, Strain/Indicator: TA100, Metabolic Activation: RAT, LIVER, S-9, KC500 OR PHENOBARBITAL, Method: LIQUID SUSPENSION active; positive | Test System: AMES SALMONELLA TYPHIMURIUM, Strain/Indicator: TA104, Metabolic Activation: RAT, LIVER, S-9, AROCLOR 1254, Method: PREINCUBATION active; positive | Test System: AMES SALMONELLA TYPHIMURIUM, Strain/Indicator: TA1530, Metabolic Activation: RAT, LIVER, S-9, Method: STANDARD PLATE active; positive | Test System: AMES SALMONELLA TYPHIMURIUM, Strain/Indicator: TA1535, Metabolic Activation: RAT, LIVER, MICROSOMES, KANECHLOR 500, Method: PREINCUBATION active; positive | Test System: AMES SALMONELLA TYPHIMURIUM, Strain/Indicator: TA1535, Metabolic Activation: RAT, LIVER, S-9, AROCLOR 1254, Method: PREINCUBATION active; positive | Test System: AMES SALMONELLA TYPHIMURIUM, Strain/Indicator: TA1535, Metabolic Activation: RAT, LIVER, S-9, AROCLOR, Method: PREINCUBATION active; positive | Test System: AMES SALMONELLA TYPHIMURIUM, Strain/Indicator: TA1535, Metabolic Activation: RAT, LIVER, S-9, SODIUM PHENOBARBITONE, Method: PREINCUBATION active; positive | Test System: AMES SALMONELLA TYPHIMURIUM, Strain/Indicator: TA1975, Metabolic Activation: RAT, LIVER, S-9, AROCLOR 1254, Method: PREINCUBATION active; positive | Test System: AMES SALMONELLA TYPHIMURIUM, Strain/Indicator: YG7104ER, Metabolic Activation: NONE, Method: STANDARD PLATE active; positive | Test System: AMES SALMONELLA TYPHIMURIUM, Strain/Indicator: YG7108ER, Metabolic Activation: NONE, Method: STANDARD PLATE active; positive | Test System: CHINESE HAMSTER V-79, Strain/Indicator: V-79/8-AZAGUANINE, Metabolic Activation: RAT, LIVER, S-15, PHENOBARBITAL, Method: STANDARD PLATE active; positive | Test System: CHINESE HAMSTER V-79, Strain/Indicator: V-79/OUABAIN, Metabolic Activation: HAMSTER, HEPATOCYTES, Method: CELL-MEDIATED active; positive | Test System: E. COLI, Strain/Indicator: WP2 (HCR), Metabolic Activation: RAT, LIVER, MICROSOMES, KANECHLOR 500, Method: PREINCUBATION active; positive | Test System: E. COLI, Strain/Indicator: WP2 (HCR-), Metabolic Activation: RAT, LIVER, MICROSOMES, PHENOBARBITAL active; positive
inactive: Test System: AMES SALMONELLA TYPHIMURIUM, Strain/Indicator: TA1535, Metabolic Activation: NONE, Method: PREINCUBATION inactive; negative | Test System: AMES SALMONELLA TYPHIMURIUM, Strain/Indicator: TA1535, Metabolic Activation: RAT, LIVER, HEPATOCYTES, Method: PREINCUBATION inactive; negative | Test System: AMES SALMONELLA TYPHIMURIUM, Strain/Indicator: TA1535, Metabolic Activation: RAT, LIVER, S-9, Method: PREINCUBATION inactive; negative | Test System: AMES SALMONELLA TYPHIMURIUM, Strain/Indicator: TA1535ER, Metabolic Activation: NONE, Method: STANDARD PLATE inactive; negative

CCN(CC)C(=S)S[C@@H]1O[C@H](CO)[C@@H](O)[C@H](O)[C@H]1O
inactive: [1] inactive; negative | Test System: AMES SALMONELLA TYPHIMURIUM, Strain/Indicator: TA98, Metabolic Activation: RAT, LIVER, S-9, AROCLOR 1254, Method: STANDARD PLATE inactive; negative | [2] inactive; negative | Test System: AMES SALMONELLA TYPHIMURIUM, Strain/Indicator: TA100, Metabolic Activation: RAT, LIVER, S-9, AROCLOR 1254, Method: STANDARD PLATE inactive; negative

C[C@H](CC1=C(C=O)CO[C@@H]1O)C1=CCC(C)(C)C1
inactive: [1] inactive; negative | [2] inactive; negative | Test System: AMES SALMONELLA TYPHIMURIUM, Strain/Indicator: TA2637, Metabolic Activation: NONE, Method: STANDARD PLATE inactive; negative

Oc1ccc(Nc2c3ccccc3nc3ccccc23)cc1
active: Test System: AMES SALMONELLA TYPHIMURIUM, Strain/Indicator: TA1537, Metabolic Activation: NONE, Method: STANDARD PLATE active; positive
